Consider 3 compounds from patent EP0319644A2, “Alkylated amide derivatives, their use and pharmaceutical compositions containing them” (THE GREEN CROSS CORPORATION, priority 1987, dated 1989).

The structures appear in SMILES notation.

In assay [1] the test system is water immersed restraint stress ulcerization. The experiment in a line: Rat water immersed restraint stress ulcerization, gum arabic preparation (Test Example 2). The class given is in vivo, Male Wister rats. The conditions noted are these: for Ulcer Index (Mean ± S.B.) / Inhibition rate (%): dose 25 mg/kg orally, preparation with 5% gum arabic (2 ml/kg); for Ulcer Index (Mean ± S.B.): rats fasted overnight; for Inhibition rate (%): versus control; for antiulcer activity: summary in words of Table 2, no significant difference between the two compounds. Here is the method:
(§1) The test was conducted according to the method of rat water immersed restraint stress ulcerization proposed by Okabe et al. (Jpn. J. Pharmacol., 18, 9, (1968)). That is, male Wistar rats weighing 230 to 250 g were fasted for 24 hours, put in a stress cage in the erect position, and were immersed in a thermostatic water tank at 22 ± 1 °C up to the sternal process. The rats were sacrificed 7 hours later, and the stomach was removed. The pylorus was ligated and 10 ml of physiological saline was infused into the stomach. The cardia also was ligated and dipped in 1% formalin for 5 to 10 minutes. Afterwards, the stomach was opened along the greater curvature, and any blood deposited on the mucosa in the glandular portion was wiped off gently. The length of the remaining ulcers (erosions) was measured. The sum (mm) of the length of the ulcers in each rat was defined as the ulcer index. The test material was administered orally 90 minutes before stress loading (dose: 5 mg/kg).
Male Wister rats weighing 200 to 220 g were fasted overnight and the preparation containing Compound 2 (S-(2-cyclohexylethyl)-N-(2-decenoyl) cysteamine) and 5% gum arabic or the preparation containing the S-oxide derivarive of Compound 2 (S-(2-cyclohexylethyl)-N-(2-decenoyl) cysteamine S-oxide) and 5% gum arabic was orally administered to each rat (2 ml/kg).
Antiulcer activity of each test compound was evaluated in the same manner as in Test Example 1.

The test system is the same in assay [2]. Kind of assay: Rat water immersed restraint stress ulcerization (Test Example 1). The class given is in vivo, male Wistar rats. To be noted: dose 5 mg/kg orally 90 minutes before stress loading; for Ulcer Index (Mean ± S.B.): 7 hours immersion at 22 ± 1 °C, suspended in saline containing 10% HCO-60, sum of ulcer lengths per rat; for Inhibition rate (%): versus untreated control. As for the experimental part:
Each test compound was suspended in physiological saline containing 10% polyoxyethylene cured caster oil (HCO-60: manufactured by Nikko Chemicals), and was then tested.
as §1

For the compound `CCCCCCCC=CC(=O)NCCSCCC1CCCCC1` [Compound 2, S-(cyclohexylethyl)-N-(2-decenoyl) cysteamine], in assay [1], the “Ulcer Index (Mean ± S.B.)” value was found to be 10.0 ± 1.5 mm, the “Inhibition rate (%)” value worked out at 58.0% and the antiulcer activity entry is given as “excellent antiulcer activity”. Also, in assay [2], the “Ulcer Index (Mean ± S.B.)” value was found to be 6.7 ± 1.7 mm and the “Inhibition rate (%)” value came to 69.5%.
In the case of `CCCCCCCC=CC(=O)NCC[S+]([O-])CCC1CCCCC1` (stereo not drawn) [S-oxide of Compound 2, S-(2-cyclohexylethyl)-N-(2-decenoyl) cysteamine S-oxide], in assay [1], the “Ulcer Index (Mean ± S.B.)” value was 12.8 ± 1.9 mm, the “Inhibition rate (%)” value is 46.2% and the antiulcer activity result is “excellent antiulcer activity”.
Consider `CCCCCCC/C=C/C(=O)NCCSCC1CCCCN1C` (stereo not drawn) [Compound 8, N-(2-decenoyl)-S-[(1-methylpiperidyl)methyl] cysteamine], for which, in assay [2], the “Ulcer Index (Mean ± S.B.)” value is reported as 8.0 ± 1.7 mm and the “Inhibition rate (%)” value worked out at 63.6%.
